Data on nine molecules can be found in article PMC11642994, “AGC family kinase of Entamoeba histolytica: Decoding the members biochemically” (PLOS Pathogens, 2024).

A word on the Km: it is the substrate concentration at which the rate is half of its maximum.

Series [1] has as its system EhAGCK1. The experiment in a line: ADP-Glo kinase assay with peptide substrates / ATP, EhAGCK1 WT. It counts as biochemical, Entamoeba histolytica. The conditions noted are these: for phosphorylation by EhAGCK1 WT (words): 1 hr. The method, then:
(§1) The phosphorylation activity of kinases was measured using the ADP-Glo kinase assay kit according to the manufacturer’s protocol with few modifications (Promega, Madison, WI, Catalogue number V6930). Assays were performed in a Corning 384-well low-volume white round bottom polystyrene NBS microplate with a total volume of 32 μl in the ratio of 1:1:2, corresponding to the kinase reaction, ADP-Glo reagent, and detection reagent, respectively. The kinase reaction was performed in an 8 μl volume containing 4 μl of purified protein kinases, 2 μl of peptide substrate, and 2 μl of ATP (Promega, Madison, WI). The working concentration of all the kinase reaction components was prepared in the standard kinase assay buffer (40 mM Tris-Cl pH 7.5, 20 mM MgCl2, 2 mM DTT). Along with other controls, only buffer-negative controls without protein kinase, substrate, and ATP were included in the kinase assay. Kinase assay reactions in each well were started immediately by adding ATP. The reactions were allowed to continue for 1 h at 30°C in the incubator chamber without shaking. The kinase assay was quenched by adding 8 μl of ADP-Glo reagent in each well before adding ADP-Glo reagent. The reaction plate was incubated for 5 min at room temperature. Termination reactions were allowed to proceed for 40 min at room temperature. ADP-Glo reagent, in addition to quenching the reaction, scavenges the unconsumed ATP from the reaction. In the final step of the ADP-Glo kinase assay, 16 μl of kinase detection reagent was added to each well and incubated for 40 min to simultaneously convert ADP to ATP and allow the newly synthesised ATP to be measured using a luciferase/luciferin reaction. The luminescent signal generated was measured using a SpectraMax i3x Multi-Mode Microplate Reader (Molecular Devices), and it was proportional to the ADP concentration produced and correlated with the kinase activity.
(§2) Standard curves were constructed by plotting the saturating relative light units (RLU) for each sample against the concentration of the peptide substrate or ATP in the reaction, following the previously reported method. The slope of the standard curve was determined and used to convert the reaction rate velocities. Velocities were expressed in μM/min by calculating the rate of reaction (DY/DX) for each reaction, where DY represented the difference between the luminescence measurements at the beginning and end of the reaction, and DX denoted the duration of the reaction (total time of reaction: 60 min). The converted velocities were plotted against the substrate concentration, and the data were fitted to the Michaelis-Menten equation to determine Km and Vmax.
(§3) The kinase assay data presented here are the mean ± standard error (SE) of n≥3 of three independent experiments. The Km and Vmax were determined from a direct, nonlinear fit of [V] versus [S] plots using the Michaelis-Menten equation: V=Vmax[S]/Km+[S] using the GraphPad Prism 9.0 software package (GraphPad Software Inc., CA, USA). Additionally, the Microscale Thermophoresis (MST) experiments were conducted using the Monolith NT.11.5 instrument, with triplicate runs. Statistical comparisons were made using Student’s t-test. Differences in mean values were considered significant at *p-value≤0.05, **p-value≤0.01, ***p-value≤0.001, ****p-value≤0.0001.
(ADP-Glo turns the ADP formed in a reaction into a luminescent signal.)

The test system of series [2] is EhAGCK2. As to the kind of experiment: ADP-Glo kinase assay with peptide substrates / ATP, EhAGCK2 WT. The series is classed as biochemical, Entamoeba histolytica. The following applies: for Km / ATP Vmax: mean ± SE, n = 6. The method, then: as §1, §2, §3
Series [3] relates to autophosphorylation. The experiment in a line: ATP biotinylation kinase assay (autophosphorylation, SA-HRPO western blot). It counts as biochemical, Entamoeba histolytica. The conditions noted are these: 4 μM kinase (EhPDK1 2 μM), 20 μM biotin-labelled ATP, 40 mM Tris-Cl pH 7.8, 10 mM MgCl2, 2 mM DTT, 30°C, 1 h. The method, then: ATP biotinylation assays were performed in the presence of 4 μM of EhAGCK1 (WT, T275D, and KDD1) and EhAGCK2 (WT, T274D, and KDD2) along with 2 μM of wild-type EhPDK1 in the presence of activation buffer 40 mM Tris-Cl pH 7.8, 10 mM MgCl2, and 2 mM DTT and incubated at 30°C for 1 h. The reaction was triggered by adding 20 μM biotin-labelled ATP (Catalogue NU-970-BIO, Jena Bioscience). 20 μl of the reaction was collected at the indicated time point and quenched by the addition of 4x SDS-loading dye. After gel electrophoresis, phosphorylated proteins were visualized by immunoblotting using HRPO-conjugated streptavidin (Invitrogen).
ATP biotinylated protein samples were separated by SDS-PAGE and then electro-transferred to PVDF membrane (Pall life sciences). The membrane was blocked overnight by 5% BSA (G-Biosciences) in TBS-T (TBS with 0.1% Tween 20) and stained with Ponceau S. This blocking process was done overnight at 4°C. The membrane was then incubated with 1:1000 dilution of HRPO-conjugated streptavidin (Invitrogen) at room temperature. Following antibody incubation, the blots were carefully cleaned with TBS-T. Band detection was carried out with a Millipore ECL kit.
Background: A western blot detects proteins with antibodies after separation by electrophoresis.

Series [4] has as its system HsGSK3 peptide. As to the kind of experiment: ADP-Glo kinase activity of kinase variants with human GSK3 peptide in MgCl2 and MnCl2 buffers. The series is classed as biochemical. The following applies: for kinase activity with HsGSK3 peptide in Mg2+ / without Mn2+ (words): kinase 0-80 μM. The method, then:
as §1, §3

[5] abbreviates: S3 Table, ADP-Glo, Michaelis-Menten fit at various substrate concentrations, 20 μM kinase, 250 μM ATP, mean ± SE, n = 6, read-out: Peptide Km in the presence of EhAGCK1.
The mark [6] stands for this setting: S3 Table, ADP-Glo, Michaelis-Menten fit at various substrate concentrations, 20 μM kinase, 250 μM ATP, read-out: Peptide Km in the presence of EhAGCK2.

Where “and” joins values, the source holds several entries; their conditions need not be identical. Equal values may be shown once. Entries after “also recorded” stand apart in the source; their conditions may differ. Read-outs that look alike come from different tables or passages of the source.

For the molecule “ELDSDEEQKELER [Filamin-A interacting protein]”, the “phosphorylation by EhAGCK1 WT (words)” value in series [1] (20 μM EhAGCK1 WT, 250 μM ATP) is listed as “recognized as substrates by EhAGCK1 WT”; in series [1] (20 μM EhAGCK1 WT, 250 μM ATP, listed as Filamin-A-interacting protein), “specifically phosphorylated”. Moreover, the Km is 3.28 ± 1.19 µM in series [1] (ADP-Glo luminescence, 20 μM EhAGCK1 WT, 250 μM ATP, peptide 0-200 μM, 30°C, 60 min, standard buffer 40 mM Tris-Cl pH 7.5, 20 mM MgCl2, 2 mM DTT, Michaelis-Menten fit, mean ± SE, n = 6, read-out: Km (peptide substrate)); 3.28 ± 1.19 µM in series [1] (setting [5]); 148 nM in series [2] (setting [6]).

For `Nc1ncnc2c1ncn2[C@@H]1O[C@H](COP(=O)(O)OP(=O)(O)OP(=O)(O)O)[C@@H](O)[C@H]1O` [ATP, reference compound], the Michaelis-Menten constant (Km) in series [1] (EhAGCK1 WT 20 μM, 50 μM EhRhoGEF peptide substrate, ATP 0-1000 μM, mean ± SE, n = 6, read-out: ATP Km) is 125 ± 16 µM; in series [1] (EhAGCK1 WT 20 μM, 50 μM HsGSK3 peptide substrate, ATP 0-1000 μM, mean ± SE, n = 6, read-out: ATP Km) it was 242 ± 22.2 µM; in series [2] (EhAGCK2 WT 20 μM, 50 μM EhCoactosin peptide substrate, ATP 0-1000 μM, read-out: ATP Km), 92100 ± 16000 nM; in series [2] (EhAGCK2 WT 20 μM, 50 μM HsGSK3 peptide substrate, ATP 0-1000 μM, read-out: ATP Km), 292000 nM and 291000 nM. The “ATP Vmax” value came out at 260.7 ± 9.4 µM/min in series [1] (EhAGCK1 WT 20 μM, 50 μM HsGSK3 peptide substrate, ATP 0-1000 μM, mean ± SE, n = 6); 444.4 ± 18.5 µM/min in series [2] (EhAGCK2 WT 20 μM, 50 μM EhCoactosin peptide substrate, ATP 0-1000 μM); 271.4 ± 30.5 µM/min in series [2] (EhAGCK2 WT 20 μM, 50 μM HsGSK3 peptide substrate, ATP 0-1000 μM).

“MAGIQLADEVTSVYNDF KLSHKYRYIV [Actophorin, peptide 1-27 of E. histolytica Actophorin (EHI_197480)]”: the figures for the Michaelis-Menten constant (Km) in series [1] (setting [5]) and in series [2] (setting [6]) were 2.83 ± 1.69 µM and 258 ± 90 nM, respectively.

On to “RRESVDYTNNK [Unconventional Myosin IB, peptide 754-764 of E. histolytica Unconventional myosin IB (EHI_110810)]”, for which the Km turned out to be 3.63 ± 2.58 µM in series [1] (setting [5]); 1340 ± 570 nM in series [2] (ADP-Glo luminescence, 20 μM EhAGCK2 WT, 250 μM ATP, peptide 0-200 μM, 30°C, 60 min, standard buffer 40 mM Tris-Cl pH 7.5, 20 mM MgCl2, 2 mM DTT, Michaelis-Menten fit, read-out: Km (peptide substrate)); 1340 ± 570 nM in series [2] (setting [6]). Also, the “phosphorylation by EhAGCK2 WT” value in series [2] (20 μM EhAGCK2 WT, 250 μM ATP, 1 hr) is listed as “recognised as substrates by EhAGCK2 WT; also recorded: accepted as substrates by EhAGCK2 WT”.

As for “SALDNGTYSPLLSPTR [RhoGEF-1, peptide 236-251 of E. histolytica RhoGEF-1 (EHI_159500)]”, the figures for the Km in series [1] (setting [5]) and in series [2] (setting [6]) were 4.42 ± 2.75 µM and 271 ± 170 nM, respectively.

Consider “KTITPVVEDPCER [HEAT repeat domain-containing protein, peptide 661-673 of E. histolytica HEAT repeat domain-containing protein (EHI_050150)]”, for which, in series [1] (20 μM EhAGCK1 WT, 250 μM ATP), the “phosphorylation by EhAGCK1 WT (words)” value is “notable phosphorylation by EhAGCK1”. The Michaelis-Menten constant (Km) was 3.62 ± 1.34 µM in series [1] (setting [5]) and 262 ± 200 nM in series [2] (setting [6]).

On to “KSPTIDEIK [Hypothetical protein, peptide 133-141 of E. histolytica Hypothetical protein (EHI_025430)]”, for which, in series [1] (20 μM EhAGCK1 WT, 250 μM ATP), the “phosphorylation by EhAGCK1 WT (words)” value was “notable phosphorylation by EhAGCK1”. The Km amounted to 2.56 ± 0.99 µM in series [1] (setting [5]) and 197 ± 80 nM in series [2] (setting [6]).

B1: EhAGCK1 WT: recombinant full-length wild-type His-tagged AGC family kinase 1 of E. histolytica (protein)
chain: MEEKTQGWLMKEGGSWKSWKKRYFVLDNDTLYYYKEQDKKTLMGTMNLSLATHITAVDNYHKKYENIIRICTPSRTFHLSAANEEERLAWLTSIICHSEKTNICKPRISSVPVTQKDFDVKCLLGKGAYGKVFLVEMISTHEIFAMKTIEKKQIIEYEEIEHTMSERRILSKLHHPFLVNLYYSFQTPTHLFYIIDYCPGGEFYYYLQKNGKVSEEDAKFYAAQILLAIEHLHSSNIVYRDIKPENILIGADGYLRLTDFGLSKENVTKENTTSTFCGTPEYLAPEVVVGKDYSEPVDWWGFGILIYEMIHGHAPFTSEDIQQLFQKIIHDPVSFPSASYPSADCKECIVMLLEKDPEKRLTDPNRIKSHCWFKGFDWEGLFQKKLSPPFVPVLKDKTDTSNFNEDIINETAKIDEGEVVDSKDYFNDFTYCK
modifications: left off: His tag, end not stated, kept
notes: recombinant full-length wild-type His-tagged AGC family kinase 1 of E. histolytica
For the molecule B1, the “autophosphorylation activity (words)” value was “exhibited autophosphorylation activity” in series [3]; “able to accept biotin-ATP as substrate and underwent autophosphorylation” in series [3] (listed as EhAGCK1). Besides, the “kinase activity with HsGSK3 peptide in Mg2+ / without Mn2+ (words)” value is recorded as “did not utilize the HsGSK3 peptide as a substrate” in series [4] (50 μM HsGSK3 peptide, 250 μM ATP) and “could not accept HsGSK3 peptide as substrate” in series [4] (50 μM HsGSK3 peptide, 250 μM ATP, listed as EhAGCK1). In addition, in series [4] (MgCl2 versus MnCl2 buffer, HsGSK3 peptide), the “ion preference for kinase activity” value is on record as “only active in the presence of MnCl2 buffer; also recorded: maximum kinase activity in the presence of Mn^2+”. The “increase in kinase activity with HsGSK3 peptide in presence of Mn2+” value in series [4] (Mn2+ present, 50 μM HsGSK3 peptide, 250 μM ATP) stood at 16 fold. Also, the “Fold change (MgCl2: MnCl2)” value in series [4] (S1 Table, kinase activity in MgCl2 and MnCl2 buffers, 50 μM HsGSK3 peptide, 250 μM ATP, 60 min, 30°C) is listed as 15.67.

B2: KDD2: kinase-dead domain EhAGCK2 (K147A and D242A) (protein)
chain: MSVKTGWGIKEGGSWKTWKRRMFKLSEGKIEYFKDEGMTKKMGDIELSKVTHVLAVDQYKKRKNLIRIITPSRTYHISVNEESDRDSWVEAIRGMIGDNKEKKTQEEKEENKISMEDFDIITLLGKGAFGKVMLVKYKKEGKIYAMATVEKAQIIDSNEVEHILSEKVVLSQINNPFLVNMHYSFQTPTHLVFILDYCAGGELFSYLQKHPAGLPEVDVKFYAAQIVLALEHMHSTGIIYRAIKPENILFEKDGYLRMTDFGLAKSTKKGTTNTFCGTPEYLAPEVVEGLDYNEYIDWWGLGILIYEMLFTQSPFLAETMEELYENILQREPKYPSTKPITEECMNFINSLLIKEPSKRLTDPDQIKTHPWFNGFNFDDLYKKKLTPPYVPKIQSQTDTSNFDDEITQEEVDLKTGVEVVADNRFFTDFTYVQK
modifications: left off: His tag, end not stated, kept
Consider B2, for which, in series [3], the “autophosphorylation activity (words)” value is “remain inactive”.
